The results in this text go back to patent US8680012B2, “4-phenyl-pyrane-3,5-diones,4-phenyl-thiopyrane-3,6-diones and cyclohexanetriones as novel herbicides” (Syngenta Crop Protection LLC, priority 2006, dated 2014).

Assay type in all cases: in vivo
For test [1], the system named is Avena fatua (AVEFA). In words: Example B pre-emergence herbicidal activity, glasshouse pot test. The settings on record: 312 h, rate 250 g/ha, evaluated after 13 days, read-out: Pre-emergence activity AVEFA (100=total damage to plant; 0=no damage to plant). The procedure: (§1) Seeds of a variety of test species were sown in standard soil in pots. After cultivation for one day (pre-emergence) or after 8 days cultivation (post-emergence) under controlled conditions in a glasshouse (at 24/16° C., day/night; 14 hours light; 65% humidity), the plants were sprayed with an aqueous spray solution derived from the formulation of the technical active ingredient in acetone/water (50:50) solution containing 0.5% Tween 20 (polyoxyethelyene sorbitan monolaurate, CAS RN 9005-64-5). The test plants were then grown in a glasshouse under controlled conditions in a glasshouse (at 24/16° C., day/night; 14 hours light; 65% humidity) and watered twice daily. After 13 days for pre and post-emergence, the test was evaluated (100=total damage to plant; 0=no damage to plant).
(§2) Alopecurus myosuroides (ALOMY), Avena fatua (AVEFA), Setaria faberi (SETFA), Echinochloa crus-galli (ECHCG), Solanum nigrum (SOLNI) and Amaranthus retroflexus (AMARE)

In test [2] the test system is Amaranthus retroflexus (AMARE). The test is described as above. The settings on record: 312 h, rate 250 g/ha, evaluated after 13 days, read-out: Pre-emergence activity AMARE (100=total damage to plant; 0=no damage to plant). The method, then: as §1, §2
In test [3] the test system is Alopecurus myosuroides (ALOMY). Described as above. Particulars: 312 h, rate 250 g/ha, evaluated after 13 days, read-out: Pre-emergence activity ALOMY (100=total damage to plant; 0=no damage to plant). The procedure:
as §1, §2

Test [4] relates to Setaria faberi (SETFA). The description is as above. Particulars: 312 h, rate 250 g/ha, evaluated after 13 days, read-out: Pre-emergence activity SETFA (100=total damage to plant; 0=no damage to plant). The procedure: as §1, §2
Test [5] concerns Echinochloa crus-galli (ECHCG). The test is described as above. The settings on record: 312 h, rate 250 g/ha, evaluated after 13 days, read-out: Pre-emergence activity ECHCG (100=total damage to plant; 0=no damage to plant). The method, then: as §1, §2
Test [6] deals with Avena fatua (AVEFA). Briefly: Example B post-emergence herbicidal activity, glasshouse pot test. Particulars: 312 h, rate 250 g/ha, evaluated after 13 days, read-out: Post-emergence activity AVEFA (100=total damage to plant; 0=no damage to plant). The method, then: as §1, §2
Test [7] relates to Amaranthus retroflexus (AMARE). The test is described as above. The settings on record: 312 h, rate 250 g/ha, evaluated after 13 days, read-out: Post-emergence activity AMARE (100=total damage to plant; 0=no damage to plant). The procedure: as §1, §2
The test system of test [8] is Alopecurus myosuroides (ALOMY). The test is described as above. The settings on record: 312 h, rate 250 g/ha, evaluated after 13 days, read-out: Post-emergence activity ALOMY (100=total damage to plant; 0=no damage to plant). The method, then: as §1, §2
Test [9] has as its system Setaria faberi (SETFA). The description is as above. The settings on record: 312 h, rate 250 g/ha, evaluated after 13 days, read-out: Post-emergence activity SETFA (100=total damage to plant; 0=no damage to plant). The procedure:
as §1, §2

Test [10] concerns Echinochloa crus-galli (ECHCG). The test is described as above. Particulars: 312 h, rate 250 g/ha, evaluated after 13 days, read-out: Post-emergence activity ECHCG (100=total damage to plant; 0=no damage to plant). The procedure:
as §1, §2

SMILES strings stand for the structures.

On to `Cc1ccc(-c2ccc(Br)cc2)cc1C1=C(O)C(C)(C)OC(C)(C)C1=O` [Compound A-82], for which the pest or weed control at 250 g/ha worked out at 90% in the test with Avena fatua (AVEFA) [1]; 20% in test [2]; 80% in [3]; 90% in the test on Setaria faberi (SETFA) [4]; 100% in test [5]; 100% with Avena fatua (AVEFA) [6]. The pest or weed control at 250 g/ha in [7] was 0%; in test [8], 100%; in the test on Setaria faberi (SETFA) [9], 100%; in [10] it was 100%.
On to `CCc1ccc(-c2ccc(Cl)nc2)cc1C1=C(O)C(C)(C)OC(C)(C)C1=O` [Compound A-76], for which the pest or weed control at 250 g/ha in the test with Avena fatua (AVEFA) [1] was determined as 50%; in test [2], 0%; in [3], 60%; in the test with Setaria faberi (SETFA) [4], 100%; in test [5] it was 70%; with Avena fatua (AVEFA) [6], 70%. For the same molecule, the pest or weed control at 250 g/ha in [7] came out at 0%; in test [8] it was 90%; with Setaria faberi (SETFA) [9], 100%; in [10] it was 100%.
Consider `Cc1ccc(-c2ccc(Cl)cc2F)cc1C1=C(O)C(C)(C)OC(C)(C)C1=O` [Compound A-59], for which the pest or weed control at 250 g/ha was 40% with Avena fatua (AVEFA) [1]; 0% in test [2]; 30% in [3]; 40% in the test on Setaria faberi (SETFA) [4]; 90% in [5]; 50% in the test with Avena fatua (AVEFA) [6]. Moreover, the pest or weed control at 250 g/ha in [7] worked out at 0%; in test [8], 30%; in the test on Setaria faberi (SETFA) [9], 90%; in test [10], 100%.
For `CCc1ccc(-c2ccc(Cl)c(Cl)c2Cl)cc1C1=C(O)C(C)(C)OC(C)(C)C1=O` [Compound A-137], the pest or weed control at 250 g/ha in the test on Avena fatua (AVEFA) [1] turned out to be 90%; in test [2], 0%; in [3], 70%; in the test on Setaria faberi (SETFA) [4] it was 100%; in test [5], 100%; with Avena fatua (AVEFA) [6], 90%. The pest or weed control at 250 g/ha in test [7] turned out to be 30%; in test [8], 90%; with Setaria faberi (SETFA) [9], 100%; in test [10], 100%.
On to `CCc1ccc(-c2ccc(OC(F)F)cc2)cc1C1=C(O)C(C)(C)OC(C)(C)C1=O` [Compound A-151], for which the pest or weed control at 250 g/ha in the test on Avena fatua (AVEFA) [1] is 100%; in test [2] it was 0%; in test [3], 100%; in the test on Setaria faberi (SETFA) [4] it was 100%; in test [5], 100%; in the test with Avena fatua (AVEFA) [6] it was 100%. For the same molecule, the pest or weed control at 250 g/ha is 0% in test [7], 100% in [8], 100% with Setaria faberi (SETFA) [9] and 100% in test [10].
Take `CCc1ccc(-c2cnc(Cl)cc2C)cc1C1=C(O)C(C)(C)OC(C)(C)C1=O` [Compound A-73]: the pest or weed control at 250 g/ha in the test on Avena fatua (AVEFA) [1] is 0%; in test [2] it was 0%; in test [3] it was 0%; in the test with Setaria faberi (SETFA) [4] it was 20%; in [5], 10%; in the test on Avena fatua (AVEFA) [6], 0%. Further, the pest or weed control at 250 g/ha in test [7] came to 0%; in test [8], 20%; with Setaria faberi (SETFA) [9] it was 90%; in test [10] it was 90%.
Turning to `CCc1ccc(-c2ccc(Cl)cc2Cl)cc1C1=C(OC(C)=O)C(C)(C)OC(C)(C)C1=O` [Compound D-23], the pest or weed control at 250 g/ha with Avena fatua (AVEFA) [1] stood at 0%; in [2] it was 0%; in [3] it was 0%; in the test on Setaria faberi (SETFA) [4], 90%; in test [5], 100%; in the test on Avena fatua (AVEFA) [6] it was 0%. The pest or weed control at 250 g/ha in test [7] turned out to be 0%; in test [8], 0%; in the test with Setaria faberi (SETFA) [9], 90%; in test [10], 100%.
In the case of `C#Cc1ccc(-c2ccc(CC)c(C3=C(O)C(C)(C)OC(C)(C)C3=O)c2)cc1` [Compound A-98], the pest or weed control at 250 g/ha came to 0% in the test with Avena fatua (AVEFA) [1]; 50% in [2]; 0% in test [3]; 90% in the test with Setaria faberi (SETFA) [4]; 90% in [5]; 70% with Avena fatua (AVEFA) [6]. Further, the pest or weed control at 250 g/ha in test [7] was found to be 30%; in test [8], 50%; in the test on Setaria faberi (SETFA) [9], 100%; in [10], 100%.
Turning to `CCc1ccc(-c2ccc(Cl)cc2Cl)cc1C1=C(O)[C@@]2(C)CC[C@H](O2)C1=O` (single isomer, unassigned) [Compound A-128], the pest or weed control at 250 g/ha in the test with Avena fatua (AVEFA) [1] was found to be 80%; in [2], 0%; in test [3], 40%; in the test with Setaria faberi (SETFA) [4], 90%; in test [5], 70%; in the test on Avena fatua (AVEFA) [6], 90%. The pest or weed control at 250 g/ha in test [7] worked out at 0%; in test [8] it was 80%; in the test on Setaria faberi (SETFA) [9], 100%; in [10], 100%.
Regarding `CCOC[C@]12CC[C@H](O1)C(=O)C(c1cc(-c3ccc(Cl)c(Cl)c3)ccc1CC)=C2O` (single isomer, unassigned) [Compound A-129], the pest or weed control at 250 g/ha with Avena fatua (AVEFA) [1] amounted to 30%; in test [2], 0%; in [3] it was 20%; in the test with Setaria faberi (SETFA) [4], 90%; in test [5], 40%; with Avena fatua (AVEFA) [6] it was 80%. For the same molecule, the pest or weed control at 250 g/ha stood at 0% in [7], 70% in [8], 80% in the test on Setaria faberi (SETFA) [9] and 90% in test [10].
Regarding `CCc1ccc(-c2ccc(Cl)cc2C#N)cc1C1=C(O)C(C)(C)OC(C)(C)C1=O` [Compound A-100], the pest or weed control at 250 g/ha in the test with Avena fatua (AVEFA) [1] was 90%; in test [2] it was 60%; in [3], 20%; with Setaria faberi (SETFA) [4] it was 100%; in test [5], 80%; with Avena fatua (AVEFA) [6], 90%. In addition, the pest or weed control at 250 g/ha was found to be 0% in test [7], 90% in [8], 100% in the test on Setaria faberi (SETFA) [9] and 100% in test [10].
For `Cc1ccc(-c2cc[n+]([O-])cc2)cc1C1=C(O)C(C)(C)OC(C)(C)C1=O` [Compound A-105], the pest or weed control at 250 g/ha (in the test with Avena fatua (AVEFA) [1]; in test [2]; in [3]; in the test with Setaria faberi (SETFA) [4]; in test [5]) was 0% throughout.
Consider `Cc1ccc(-c2cnc(N)nc2)cc1C1=C(O)C(C)(C)OC(C)(C)C1=O` [Compound A-104], for which the pest or weed control at 250 g/ha (with Avena fatua (AVEFA) [1]; in test [2]; in test [3]; in the test on Setaria faberi (SETFA) [4]; in [5]) was 0% each time.
